Results on 5 molecules are retold here after US12385013B2, “Differentiation of pancreatic endocrine cells” (Vertex Pharmaceuticals Incorporated, priority 2020, dated 2025).

SMILES strings stand for the structures.

Experiment [1] relates to S5c cells differentiated from human stem cells. As to the kind of experiment: Flow cytometry of NKX6.1/ISL1 at S5c. The class given is cell-based. Particulars: for effect on alpha cells (ISL1-positive/NKX6.1-negative) / effect on sc-EC cells (NKX6.1-positive/ISL-negative): PDBU 0.5 μM or TPPB 0.1 μM on S4d5, S5d1, S5d2. As for the experimental part: In one experiment, effect of application of PDBU and gamma secretase inhibitor, XXI, was tested. In this experiment, three differentiation conditions were examined and compared: Version A protocol; Version B; Version B+XXI (both PDBU and XXI was applied from S4d5 to S5d2, and XXI continued to be applied throughout S5). FIG. 10B summarizes the percentages of ISL1-positive cells and ISL1-negative cells at S5c generated via different protocols, as measured by flow cytometry (exemplified in FIG. 10A). As shown in the figure, combined PKC activation and gamma secretase inhibition starting during S4 led to robust induction of ISL1-positive cells from about 65% to higher than 90%, whereas PKC activation alone led to about 80% ISL1-positive cells.
(§1) In another experiment, the effect of two different PKC activators on enterochromaffin cells and alpha cells was examined. In this experiment, three differentiation conditions were examined and compared: Version A protocol; Version A with PDBU applied at 0.5 μM on days S4d5, S5d1, and S5d2 (VA+PDBU); and Version A with ((2S,5S)-(E,E)-8-(5-(4-(Trifluoromethyl)phenyl)-2,4-pentadienoylamino)benzolactam) at 0.1 μM on days S4d5, S5d1, and S5d2 (VA+TPPB). FIG. 11B summarizes the percentages of NKX6.1-positive/ISL-negative cells and ISL1-positive/NKX6.1-negative cells at S5c generated via the different protocols, as measured by flow cytometry (exemplified in FIG. 11A).

The test system of the next experiment is S6d13 cells. As to the kind of experiment: In vitro glucose-stimulated insulin secretion response. The class given is cell-based, human. The source says:
In one experiment, in vitro glucose-stimulated insulin secretion response of S6d13 cells generated by Version A and Version B protocols was examined.

The test system of experiment [2] is Stage 6 cells differentiated from human stem cells. As to the kind of experiment: Flow cytometry of Stage 6 endocrine cell populations (C-peptide/VMAT1, GCG/SST). The class given is cell-based. Here is the method:
(§2) Both Version A and Version B protocols are 6-stage stepwise protocols that share similar reagents and treatment timing. With Version A protocols, stem cells were treated with reagents in the following consecutive orders during the first five stages: Stage 1 (S1), Activin-A for 3 days and also CHIR99021 for the first 24 hr; Stage 2 (S2), KGF for 3 days; Stage 3 (S3), KGF, PDBU, Sant-1, retinoic acid (RA), Activin A, and Thiazovivin for 2 days, and also DMH-1 for the first day; Stage 4 (S4), KGF, Sant-1, Thiazovivin, Activin A, and RA for 6 days; Stage 5 (S5), XXI, Alk5i, GC-1, LDN-193189, Thiazovivin, Staurosporine, and DZNEP for 7 days, and also RA, Sant-1, and Betacellulin for the first 2 days. In Version B protocols, one difference from Version A protocols is that the cells were supplemented with PDBU from day 5 of Stage 4 (S4d5) to day 2 of Stage 5 (S5d2). In one experiment, 500 nM of PDBU was used to treat the cells during S4d5 to S5d2.
In one experiment, four different exemplary Stage 6 treatment paradigms were also tested at S6 in combination with the first five stages of Version A or Version B protocols. Briefly, i) with S6-a paradigm, S5c cells were cultured in DMEM/F12 medium containing 1% HSA for 7-14 days; ii) with S6-b paradigm, S5c cells were cultured in MCDB131 medium containing 0.05% HSA and the following supplements (per 1 L MCDB131): 0.44 g Glucose, 1.23 g NaHCO3, 0.044 g Vitamin C, 10 ml Glutamax, and 5 ml ITS-x; iii) with S6-c paradigm, S5c cells were cultured in MCDB131 medium containing 0.05% HSA and vitamin C for 7-14 days, during which the cells were treated with 10 μM Alk5i, 1 μM GC-1, 100 nM LDN-193189, 2.5 μM Thiazovivin, 3 nM SSP, and 100 nM DZNEP for the first four days; iv) with S6-d paradigm, S5c cells were cultured in MCDB131 medium (no glutamine base media) containing 0.05% HSA, ITS-X, vitamin C, and 4 mM Gln, as well as […] Alk5i, 1 μM GC-1, 100 nM LDN-193189, 2.5 μM Thiazovivin, 3 nM SSP, and 100 nM DZNEP, for four days, followed by culturing in MCDB131 medium (no glutamine base media) containing 0.05% HSA, ITS-X, vitamin C, and 4 mM Gln with no additional factors for additional 3-10 days.
As shown in the figure, with Version A protocols, the percentage of C-peptide-positive, VMAT1-negative cells on S6d9 or S6d14 were all around 35%, except for VA/S6-a and VA/S6-d on S6d9 (both around 40%), whereas with Version B protocols, the percentage of C-peptide-positive, VMAT1-negative cells was from 45% to 55% on S6d9, and around 45% on S6d14.
(In general: A flow cytometer gives signals particle by particle.)

Experiment [3] relates to S5c cells differentiated from human stem cells. As to the kind of experiment: Single-cell RNA sequencing of S5c cells after stem cell differentiation. The class given is cell-based. As to conditions: compared to Version A protocol, PDBU S4d5 to S5d2. As for the experimental part: as §2
Experiment [4] has as its system Stage 6 cells differentiated from human stem cells. As to the kind of experiment: Insulin content of generated cells. It is filed as cell-based. As to conditions: comparison between protocols.
The subject of experiment [5] is S5c cells differentiated from human stem cells. As to the kind of experiment: SOX9 expression at the end of S5. Particulars: compared to Version A protocols. The class given is cell-based.
A further experiment addresses EZH2 (Homo sapiens, UniProt Q15910). Particulars: cited from earlier work.
For experiment [6], the system named is cells differentiated from human stem cells. As to the kind of experiment: Yield of total cells. The class given is cell-based. Here is the method: as §1

EZH2, sequence (Q15910 whole entry, species assumed): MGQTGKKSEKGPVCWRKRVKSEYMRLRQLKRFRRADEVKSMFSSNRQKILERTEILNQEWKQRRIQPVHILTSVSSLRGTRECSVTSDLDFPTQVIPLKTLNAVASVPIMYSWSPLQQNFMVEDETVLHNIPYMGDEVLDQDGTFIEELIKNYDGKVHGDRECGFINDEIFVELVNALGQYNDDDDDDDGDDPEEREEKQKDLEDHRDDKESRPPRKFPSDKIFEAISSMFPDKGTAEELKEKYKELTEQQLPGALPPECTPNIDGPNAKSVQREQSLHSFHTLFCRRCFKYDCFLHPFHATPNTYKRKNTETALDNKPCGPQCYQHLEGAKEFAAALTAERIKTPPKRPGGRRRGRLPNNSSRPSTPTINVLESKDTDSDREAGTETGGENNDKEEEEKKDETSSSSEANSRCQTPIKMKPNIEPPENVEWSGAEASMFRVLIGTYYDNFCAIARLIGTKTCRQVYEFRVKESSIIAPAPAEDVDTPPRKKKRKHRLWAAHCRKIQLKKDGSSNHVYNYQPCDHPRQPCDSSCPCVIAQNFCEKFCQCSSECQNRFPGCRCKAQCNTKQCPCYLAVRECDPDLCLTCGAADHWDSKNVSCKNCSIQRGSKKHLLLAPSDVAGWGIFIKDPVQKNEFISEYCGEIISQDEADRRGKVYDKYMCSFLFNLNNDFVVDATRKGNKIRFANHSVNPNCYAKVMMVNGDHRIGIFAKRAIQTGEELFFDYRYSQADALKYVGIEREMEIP
EZH2, sequence (O75530 whole entry partner, species assumed): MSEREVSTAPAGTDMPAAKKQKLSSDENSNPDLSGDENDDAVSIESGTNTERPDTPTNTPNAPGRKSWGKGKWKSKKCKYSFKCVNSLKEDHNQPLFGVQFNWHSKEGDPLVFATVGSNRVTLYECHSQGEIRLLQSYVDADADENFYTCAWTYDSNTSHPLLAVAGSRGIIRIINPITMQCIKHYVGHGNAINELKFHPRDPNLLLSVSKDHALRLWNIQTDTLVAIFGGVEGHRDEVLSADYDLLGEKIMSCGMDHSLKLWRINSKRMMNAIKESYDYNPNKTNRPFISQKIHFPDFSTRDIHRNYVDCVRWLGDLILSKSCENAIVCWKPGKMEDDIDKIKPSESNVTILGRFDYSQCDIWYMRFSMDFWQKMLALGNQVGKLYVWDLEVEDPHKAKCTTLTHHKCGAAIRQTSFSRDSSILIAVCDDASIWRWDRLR
EZH2, sequence (Q15022 whole entry partner, species assumed): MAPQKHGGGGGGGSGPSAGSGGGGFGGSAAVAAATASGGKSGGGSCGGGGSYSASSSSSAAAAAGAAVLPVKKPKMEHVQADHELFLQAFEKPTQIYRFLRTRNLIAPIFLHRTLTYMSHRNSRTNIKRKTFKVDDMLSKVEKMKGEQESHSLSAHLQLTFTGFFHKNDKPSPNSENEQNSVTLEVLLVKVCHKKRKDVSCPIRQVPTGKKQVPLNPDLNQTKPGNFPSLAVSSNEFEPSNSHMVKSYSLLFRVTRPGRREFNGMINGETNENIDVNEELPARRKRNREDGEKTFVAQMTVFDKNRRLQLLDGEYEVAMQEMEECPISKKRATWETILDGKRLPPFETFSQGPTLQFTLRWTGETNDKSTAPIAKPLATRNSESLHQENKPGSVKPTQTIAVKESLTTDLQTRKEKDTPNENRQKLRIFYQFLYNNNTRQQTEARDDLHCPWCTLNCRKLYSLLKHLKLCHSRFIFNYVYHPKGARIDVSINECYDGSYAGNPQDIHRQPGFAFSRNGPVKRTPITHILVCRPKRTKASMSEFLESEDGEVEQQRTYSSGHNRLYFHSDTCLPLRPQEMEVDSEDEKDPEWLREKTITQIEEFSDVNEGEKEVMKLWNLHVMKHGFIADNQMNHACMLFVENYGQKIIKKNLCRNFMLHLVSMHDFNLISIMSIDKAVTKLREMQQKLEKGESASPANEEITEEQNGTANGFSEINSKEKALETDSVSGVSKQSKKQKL

On to `CCCC(=O)O[C@@H]1[C@@H](C)[C@@]2(O)[C@@H](C=C(CO)C[C@]3(O)C(=O)C(C)=C[C@@H]23)[C@@H]2C(C)(C)[C@]12OC(=O)CCC` [Version B, phorbol 12,13-dibutyrate], for which the “effect on alpha cells (ISL1-positive/NKX6.1-negative)” value in experiment [1] was “increasing alpha cells”. Also, in experiment [1], the “effect on sc-EC cells (NKX6.1-positive/ISL-negative)” value is recorded as “reducing sc-EC cells”. In addition, the “percentage of ISL1-positive cells” value in experiment [1] (Version A about 65%) was “about 80%”. The “insulin secretion in response to 20 mM glucose challenge as compared to 2.8 mM glucose challenge” value in the experiment with S6d13 cells is given as “no clear increase in insulin secretion”. In addition, the “responsiveness to glucose challenges (GSIS)” value in the experiment on S6d13 cells is “relatively low responsiveness to glucose challenges”. Besides, the “percentage of EC cells (VMAT1+/C-peptide−)” value in experiment [2] (S6d9) and in experiment [2] (S6d14) was “less than 20%” each time. In addition, the “percentage of δ cells (SST+/GCG−)” value in experiment [2] (S6d9, listed as vB/S6-a) is reported as “around 5%”; in experiment [2] (S6d9, listed as vB/S6-b) it was “around 7%”; in experiment [2] (S6d9, listed as vB/S6-d) it was “around 8%”; in experiment [2] (S6d14, listed as vB/S6-a) it was “around 5%”; in experiment [2] (S6d14, listed as vB/S6-b), “around 5%”; in experiment [2] (S6d14, listed as vB/S6-d), “around 8%”. For the same molecule, the “percentage of C-peptide-positive, VMAT1-negative cells” value in experiment [2] (S6d14) is listed as “around 45%”. In addition, the “percentage of α cells (GCG+/SST−)” value in experiment [2] (S6d14, listed as vB/S6-a) is listed as “around 22%”; in experiment [2] (S6d14, listed as vB/S6-b), “around 22%”; in experiment [2] (S6d14, listed as vB/S6-c), “around 15%”; in experiment [2] (S6d14, listed as vB/S6-d), “around 15%”. In addition, in experiment [3], the “percentage of cells expressing CHGA” value is listed as “comparable percentage”. Besides, the “percentage of cells expressing DDC (marker of enterochromaffin cells)” value in experiment [3] was “much reduced percentage”. In experiment [3], the “percentage of cells expressing ISL1” value is on record as “comparable percentage”. The “insulin content in cells” value in experiment [4] was “comparable”. In addition, the “cells expressing SOX9” value in experiment [5] was “increased cells expressing SOX9”.

In the case of `CC[C@H](C)n1cc(C)c2c(C(=O)NCc3c(C)cc(C)[nH]c3=O)cc(-c3ccc(N4CCNCC4)nc3)cc21` [GSK126], the “selectivity for EZH2 over EZH1” value on EZH2 was 150 fold.

For the molecule `CCCc1cc(C)[nH]c(=O)c1CNC(=O)c1cc(-c2ccc(N3CCN(C(C)C)CC3)nc2)cc2c1cnn2C(C)C` [UNC1999], at EZH2, the “selectivity relative to GSK126” value is reported as “less selective”.

Regarding `C[C@H](NC(=O)Cc1cc(F)cc(F)c1)C(=O)N[C@H]1N=C(c2ccccc2)c2ccccc2N(C)C1=O` [XXI], in experiment [6] (XXI added to VA/TPPB at days S4d5, S5d1, S5d2), the cell yield result is “reduction in in cell yield”.

On to `CC(C)[C@H]1C(=O)N[C@H](CO)Cc2cc(NC(=O)/C=C/C=C/c3ccc(C(F)(F)F)cc3)ccc2N1C` [VA/TPPB, ((2S,5S)-(E,E)-8-(5-(4-(Trifluoromethyl)phenyl)-2,4-pentadienoylamino)benzolactam)], for which, in experiment [1], the “effect on alpha cells (ISL1-positive/NKX6.1-negative)” value was “increasing alpha cells” and the “effect on sc-EC cells (NKX6.1-positive/ISL-negative)” value was “similarly effective as VA/PDBU at reducing sc-EC cells”. In addition, the “increase in yield of total cells as compared to VA/PDBU” value in experiment [6] (TPPB 0.1 μM on S4d5, S5d1, S5d2) is given as “more than 2 fold”.
